Measured values as given in patent publication US20240209028A1, “CNP COMPOUNDS” (priority 2022, published 2024).
In brackets after ≈: the same amount, converted by molar mass. Starred links: 1 amine or outer side, 2 acyl side, 3 side chain; linkers in the order of their positions; H or OH if unused. Positions of bridges follow the written chain, without caps; N, C: chain ends. Residues, ends and D or L forms follow the SMILES beside them. *: point of attachment. C18 diacid = O=C(O)CCCCCCCCCCCCCCCCC(=O)*; γGlu = O=C(O)[C@H](CCC(=O)[*:2])N[*:1]; AEEA = NCCOCCOCC(=O)O

assay: Solubility of CNP compounds at pH 4.0 and pH 6.5; assay type: physicochemical; conditions: 8 mM sodium phosphate, 23 mg/mL glycerol, pH 6.5, room temperature; read-out: Solubility at pH 6.5
Description: In order to assess the suitability of CNP compounds for a soluble liquid formulation, the solubility of CNP compounds in pharmaceutically relevant buffers were measured. Solubility at two different pH-levels (pH 4.0 and pH 6.5) was examined as pH is expected to affect solubility.
Preparation of pH 4.0 samples: The pH 4.0 samples of the CNP compounds were prepared by mixing freeze dried peptide with a pH 4.0 5 mM sodium acetate, 250 mM glycerol buffer at room temperature to a nominal concentration of at least 4000-5000 nmol/mL. The pH of the samples was measured and adjusted to pH 4.0 and the samples were allowed to equilibrate at room temperature until next day if not fully dissolved.
Preparation of pH 6.5 samples: The pH 6.5 samples of the CNP compounds were prepared by dissolving the freeze dried peptide in water. While stirring, a part of the peptide solution was transferred to a buffer consisting of 41 mM sodium phosphate and 118 mg/mL glycerol, pH 7.5-8.0, followed by addition of diluted sodium hydroxide followed by another part of the peptide solution and further addition of diluted sodium hydroxide. This procedure was repeated until all of the peptide solution had been added where a nominal concentration of at least 4000-5000 nmol/mL had been reached and the buffer composition was 8 mM sodium phosphate, 23 mg/mL glycerol. The pH of the samples were measured and adjusted to pH 6.5 and the samples were allowed to equilibrate at room temperature until next day if not fully dissolved.
Procedure: Samples at pH 4.0 were prepared as described above and the compound concentration in the supernatant was determined using CAD (Method F, CAD02).
Samples at pH 6.5 were prepared as described above and peptide concentration in the supernatant was determined by CAD (Method F, CAD02).

Compound	solubility [µM]
CC[C@H](C)[C@@H]1NC(=O)[C@H](CCCNC(=N)N)NC(=O)[C@H](CC(=O)O)NC(=O)[C@H](CC(C)C)NC(=O)[C@@H]2CCCN2C(=O)[C@H](CC(C)C)NC(=O)CNC(=O)[C@H](Cc2ccccc2)NC(=O)[C@@H](NC(=O)CNC(=O)[C@H](CO)NC(=O)[C@H](CO)NC(=O)[C@@H](NC(=O)CNC(=O)[C@@H](NC(=O)[C@H](CCCCN)NC(=O)[C@H](CCC(N)=O)NC(=O)[C@H](C)NC(=O)CNC(=O)[C@H](Cc2c[nH]cn2)NC(=O)[C@H](Cc2ccc(O)cc2)NC(=O)COCCOCCNC(=O)COCCOCCNC(=O)CC[C@H](NC(=O)CCCCCCCCCCCCCCCCC(=O)O)C(=O)O)[C@@H](C)O)C(C)C)CSSC[C@@H](C(=O)O)NC(=O)CNC(=O)[C@H](CC(C)C)NC(=O)CNC(=O)[C@H](CO)NC(=O)[C@H](CC(C)C)NC(=O)[C@H](CO)NC(=O)CNC1=O [compound 1303] ({C18 diacid-γGlu-AEEA-AEEA}-YHGAQKTGVSSGCFGLPLDRIGSLSGLGC-OH; disulfide 13-29)	4840 (≈ 17400 µg/mL)
CC[C@H](C)[C@@H]1NC(=O)[C@H](CCCNC(=N)N)NC(=O)[C@H](CC(=O)O)NC(=O)[C@H](CC(C)C)NC(=O)[C@@H]2CCCN2C(=O)[C@H](CC(C)C)NC(=O)CNC(=O)[C@H](Cc2ccccc2)NC(=O)[C@@H](NC(=O)CNC(=O)[C@H](CO)NC(=O)[C@H](CO)NC(=O)[C@@H](NC(=O)CNC(=O)[C@@H](NC(=O)[C@H](CCCCN)NC(=O)[C@H](CCC(N)=O)NC(=O)[C@H](C)NC(=O)CNC(=O)[C@H](Cc2c[nH]cn2)NC(=O)[C@H](Cc2ccc(O)cc2)NC(=O)[C@H](CCCCN)NC(=O)[C@H](CCCNC(=N)N)NC(=O)[C@H](C)NC(=O)COCCOCCNC(=O)COCCOCCNC(=O)CC[C@H](NC(=O)CC[C@H](NC(=O)CCCCCCCCCCCCCCCCC(=O)O)C(=O)O)C(=O)O)[C@@H](C)O)C(C)C)CSSC[C@@H](C(=O)O)NC(=O)CNC(=O)[C@H](CC(C)C)NC(=O)CNC(=O)[C@H](CO)NC(=O)[C@H](CC(C)C)NC(=O)[C@H](CO)NC(=O)CNC1=O [compound 1354] ({C18 diacid-γGlu-γGlu-AEEA-AEEA}-ARKYHGAQKTGVSSGCFGLPLDRIGSLSGLGC-OH; disulfide 16-32)	440 (≈ 1800 µg/mL)
CC[C@H](C)[C@@H]1NC(=O)[C@H](CCCNC(=N)N)NC(=O)[C@H](CC(=O)O)NC(=O)[C@H](CC(C)C)NC(=O)[C@@H]2CCCN2C(=O)[C@H](CC(C)C)NC(=O)CNC(=O)[C@H](Cc2ccccc2)NC(=O)[C@@H](NC(=O)CNC(=O)[C@H](CCCCN)NC(=O)[C@H](CO)NC(=O)[C@H](CC(C)C)NC(=O)CNC(=O)[C@H](CCCCN)NC(=O)[C@H](CCCCN)NC(=O)[C@H](CCC(N)=O)NC(=O)[C@H](C)NC(=O)CNC(=O)[C@H](CCC(=O)O)NC(=O)[C@H](Cc2ccc(O)cc2)NC(=O)COCCOCCNC(=O)COCCOCCNC(=O)COCCOCCNC(=O)COCCOCCNC(=O)CC[C@H](NC(=O)CCCCCCCCCCCCCCCCC(=O)O)C(=O)O)CSSC[C@@H](C(=O)O)NC(=O)CNC(=O)[C@H](CC(C)C)NC(=O)CNC(=O)[C@H](CO)NC(=O)[C@H](CC(C)C)NC(=O)[C@H](CO)NC(=O)CNC1=O [compound 1375] ({C18 diacid-γGlu-AEEA-AEEA-AEEA-AEEA}-YEGAQKKGLSKGCFGLPLDRIGSLSGLGC-OH; disulfide 13-29; C-terminus assumed)	3130 (≈ 12400 µg/mL)
CC[C@H](C)[C@@H]1NC(=O)[C@H](CCCNC(=N)N)NC(=O)[C@H](CC(=O)O)NC(=O)[C@H](CC(C)C)NC(=O)[C@@H]2CCCN2C(=O)[C@H](CC(C)C)NC(=O)CNC(=O)[C@H](Cc2ccccc2)NC(=O)[C@@H](NC(=O)CNC(=O)[C@H](CCCCN)NC(=O)[C@H](CO)NC(=O)CNC(=O)CNC(=O)[C@H](CCCCN)NC(=O)[C@H](CCCCN)NC(=O)[C@H](CCC(N)=O)NC(=O)[C@H](C)NC(=O)CNC(=O)[C@H](CCC(=O)O)NC(=O)[C@H](Cc2ccc(O)cc2)NC(=O)COCCOCCNC(=O)COCCOCCNC(=O)CC[C@H](NC(=O)CCCCCCCCCCCCCCCCC(=O)O)C(=O)O)CSSC[C@@H](C(=O)O)NC(=O)CNC(=O)[C@H](CC(C)C)NC(=O)CNC(=O)[C@H](CO)NC(=O)[C@H](CC(C)C)NC(=O)[C@H](CO)NC(=O)CNC1=O [compound 1377] ({C18 diacid-γGlu-AEEA-AEEA}-YEGAQKKGGSKGCFGLPLDRIGSLSGLGC-OH; disulfide 13-29)	443 (≈ 1600 µg/mL)
CC[C@H](C)[C@@H]1NC(=O)[C@H](CCCNC(=N)N)NC(=O)[C@H](CC(=O)O)NC(=O)[C@H](CC(C)C)NC(=O)[C@@H]2CCCN2C(=O)[C@H](CC(C)C)NC(=O)CNC(=O)[C@H](Cc2ccccc2)NC(=O)[C@@H](NC(=O)CNC(=O)[C@H](CO)NC(=O)[C@H](CO)NC(=O)[C@H](CC(C)C)NC(=O)CNC(=O)[C@H](CCCCN)NC(=O)[C@H](CCCCN)NC(=O)[C@H](CCC(N)=O)NC(=O)[C@H](C)NC(=O)CNC(=O)[C@H](CCC(=O)O)NC(=O)[C@H](Cc2ccc(O)cc2)NC(=O)[C@H](CO)NC(=O)[C@H](CCCNC(=N)N)NC(=O)[C@H](C)NC(=O)[C@H](CCC(N)=O)NC(=O)[C@@H]2CCCN2C(=O)[C@H](Cc2c[nH]cn2)NC(=O)[C@H](CCC(=O)O)NC(=O)[C@H](CCC(N)=O)NC(=O)COCCOCCNC(=O)COCCOCCNC(=O)CC[C@H](NC(=O)CCCCCCCCCCCCCCCCC(=O)O)C(=O)O)CSSC[C@@H](C(=O)O)NC(=O)CNC(=O)[C@H](CC(C)C)NC(=O)CNC(=O)[C@H](CO)NC(=O)[C@H](CC(C)C)NC(=O)[C@H](CO)NC(=O)CNC1=O [compound 1379] ({C18 diacid-γGlu-AEEA-AEEA}-QEHPQARSYEGAQKKGLSSGCFGLPLDRIGSLSGLGC-OH; disulfide 21-37; C-terminus assumed)	2670 (≈ 12200 µg/mL)
CC[C@H](C)[C@@H]1NC(=O)[C@H](CCCNC(=N)N)NC(=O)[C@H](CC(=O)O)NC(=O)[C@H](CC(C)C)NC(=O)[C@@H]2CCCN2C(=O)[C@H](CC(C)C)NC(=O)CNC(=O)[C@H](Cc2ccccc2)NC(=O)[C@@H](NC(=O)CNC(=O)[C@H](CO)NC(=O)[C@H](CO)NC(=O)[C@H](CC(C)C)NC(=O)CNC(=O)[C@H](CCCCN)NC(=O)[C@H](CCCCN)NC(=O)[C@H](CCC(N)=O)NC(=O)[C@H](C)NC(=O)CNC(=O)[C@H](CCCCN)NC(=O)[C@H](Cc2ccc(O)cc2)NC(=O)[C@H](CCCCN)NC(=O)[C@H](CCCNC(=N)N)NC(=O)[C@H](C)NC(=O)CC[C@H](NC(=O)CC[C@H](NC(=O)CC[C@H](NC(=O)CC[C@H](NC(=O)CCCCCCCCCCCCCCCCC(=O)O)C(=O)O)C(=O)O)C(=O)O)C(=O)O)CSSC[C@@H](C(=O)O)NC(=O)CNC(=O)[C@H](CC(C)C)NC(=O)CNC(=O)[C@H](CO)NC(=O)[C@H](CC(C)C)NC(=O)[C@H](CO)NC(=O)CNC1=O [compound 1386] ({C18 diacid-γGlu-γGlu-γGlu-γGlu}-ARKYKGAQKKGLSSGCFGLPLDRIGSLSGLGC-OH; disulfide 16-32)	490 (≈ 2000 µg/mL)
